Experimental data reported in PubChem BioAssay (NCI).
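1) Cells in 96-well plates. 2) Compound, 48 h, 5 concentrations. 3) Linear interpolation between surrounding doses. 4) Unreached endpoint = highest concentration. TGI: concentration producing complete growth inhibition.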

How the values were obtained:
Experiment in all cases: inhibition of tumour cell growth, NCI panel, 48 h
RXF 393 renal = tested on: RXF 393 renal
MDA-MB-231 breast = tested on: MDA-MB-231 breast
MCF7 breast = tested on: MCF7 breast
SF-295 CNS = tested on: SF-295 CNS
COLO 205 colon = tested on: COLO 205 colon
OVCAR-4 ovarian = tested on: OVCAR-4 ovarian
IGROV1 ovarian = tested on: IGROV1 ovarian
CCRF-CEM leukemia = tested on: CCRF-CEM leukemia
SK-MEL-28 melanoma = tested on: SK-MEL-28 melanoma
UO-31 renal = tested on: UO-31 renal

SMILES: CCOC(=O)C(NC(=O)CC)(Nc1ccc(S(=O)(=O)Nc2ccc(OC)nn2)cc1)C(F)(F)F (stereo not given)
- TGI (RXF 393 renal): > 100 µM
- TGI (MDA-MB-231 breast): > 100 µM
- TGI (MCF7 breast): > 100 µM
- TGI (SF-295 CNS): > 100 µM
- TGI (COLO 205 colon): > 100 µM
- TGI (OVCAR-4 ovarian): > 100 µM
- TGI (IGROV1 ovarian): > 100 µM
- TGI (CCRF-CEM leukemia): > 100 µM
- TGI (SK-MEL-28 melanoma): > 100 µM
- TGI (UO-31 renal): > 100 µM

SMILES: O=C1c2cccnc2-c2nccc3c2c1nc1ccc(Br)cc13
- TGI (RXF 393 renal): 0.0691 µM
- TGI (MDA-MB-231 breast): 0.211 µM
- TGI (MCF7 breast): < 0.03 µM
- TGI (SF-295 CNS): 0.114 µM
- TGI (COLO 205 colon): 1.6 µM
- TGI (OVCAR-4 ovarian): 0.324 µM
- TGI (IGROV1 ovarian): 0.143 µM
- TGI (CCRF-CEM leukemia): 0.133 µM
- TGI (SK-MEL-28 melanoma): 0.169 µM
- TGI (UO-31 renal): 0.202 µM

SMILES: Nc1ccccc1OCCCOc1ccccc1N
- TGI (RXF 393 renal): > 100 µM
- TGI (MDA-MB-231 breast): > 100 µM
- TGI (MCF7 breast): > 100 µM
- TGI (SF-295 CNS): > 100 µM
- TGI (COLO 205 colon): > 100 µM
- TGI (OVCAR-4 ovarian): > 100 µM
- TGI (IGROV1 ovarian): > 100 µM
- TGI (CCRF-CEM leukemia): > 100 µM
- TGI (SK-MEL-28 melanoma): > 100 µM
- TGI (UO-31 renal): > 100 µM

SMILES: COC12C=CC(CC1)C(C)(C)C2OS(C)(=O)=O (stereo not given)
- TGI (RXF 393 renal): > 100 µM
- TGI (MDA-MB-231 breast): > 100 µM
- TGI (MCF7 breast): > 100 µM
- TGI (SF-295 CNS): > 100 µM
- TGI (COLO 205 colon): > 100 µM
- TGI (OVCAR-4 ovarian): > 100 µM
- TGI (IGROV1 ovarian): > 100 µM
- TGI (CCRF-CEM leukemia): > 100 µM
- TGI (SK-MEL-28 melanoma): > 100 µM
- TGI (UO-31 renal): > 100 µM

SMILES: O=S(c1ccc(Cl)cc1)c1ccccc1C1=NCCN1 (stereo not given)
- TGI (RXF 393 renal): > 100 µM
- TGI (MDA-MB-231 breast): > 100 µM
- TGI (MCF7 breast): > 100 µM
- TGI (SF-295 CNS): > 100 µM
- TGI (COLO 205 colon): > 100 µM
- TGI (OVCAR-4 ovarian): > 100 µM
- TGI (IGROV1 ovarian): > 100 µM
- TGI (CCRF-CEM leukemia): > 100 µM
- TGI (SK-MEL-28 melanoma): > 100 µM
- TGI (UO-31 renal): > 100 µM

SMILES: CC(=O)O[C@H]1C[C@](C)(O)[C@@]23CC([C@@H](OC(=O)C(C)(C)O)[C@@H](OC(C)=O)C2(COC(=O)c2ccccc2)[C@H]1OC(C)=O)C(C)(C)O3 (stereo not given in full)
- TGI (RXF 393 renal): > 100 µM
- TGI (MDA-MB-231 breast): > 100 µM
- TGI (MCF7 breast): > 100 µM
- TGI (SF-295 CNS): > 100 µM
- TGI (COLO 205 colon): > 100 µM
- TGI (OVCAR-4 ovarian): > 100 µM
- TGI (IGROV1 ovarian): > 100 µM
- TGI (CCRF-CEM leukemia): > 100 µM
- TGI (SK-MEL-28 melanoma): > 100 µM
- TGI (UO-31 renal): > 100 µM

SMILES: CC(=O)N1C(Nc2cccc3nc(C)ccc23)CCN1c1ccccc1 (stereo not given)
- TGI (RXF 393 renal): > 10 µM
- TGI (MDA-MB-231 breast): > 10 µM
- TGI (MCF7 breast): > 10 µM
- TGI (SF-295 CNS): > 10 µM
- TGI (COLO 205 colon): > 10 µM
- TGI (OVCAR-4 ovarian): > 10 µM
- TGI (IGROV1 ovarian): > 10 µM
- TGI (CCRF-CEM leukemia): > 10 µM
- TGI (SK-MEL-28 melanoma): > 10 µM
- TGI (UO-31 renal): > 10 µM

SMILES: O=C1C=C(O)c2c(O)ccc(O)c2C1=O
- TGI (RXF 393 renal): > 100 µM
- TGI (MDA-MB-231 breast): > 100 µM
- TGI (MCF7 breast): > 100 µM
- TGI (SF-295 CNS): > 100 µM
- TGI (COLO 205 colon): > 100 µM
- TGI (OVCAR-4 ovarian): > 100 µM
- TGI (IGROV1 ovarian): > 100 µM
- TGI (CCRF-CEM leukemia): > 100 µM
- TGI (SK-MEL-28 melanoma): > 100 µM
- TGI (UO-31 renal): > 100 µM

SMILES: CC(=O)OCC1OC(SC2=NC(=O)/C(=C/c3ccccc3)S2)C(OC(C)=O)C(OC(C)=O)C1OC(C)=O (stereo not given)
- TGI (RXF 393 renal): 67.6 µM
- TGI (MDA-MB-231 breast): 44.5 µM
- TGI (MCF7 breast): 52.2 µM
- TGI (SF-295 CNS): > 100 µM
- TGI (COLO 205 colon): > 100 µM
- TGI (OVCAR-4 ovarian): > 100 µM
- TGI (IGROV1 ovarian): > 100 µM
- TGI (CCRF-CEM leukemia): 94.4 µM
- TGI (SK-MEL-28 melanoma): > 100 µM
- TGI (UO-31 renal): 52.8 µM

SMILES: COc1ccc(-c2nc(-c3cnccn3)n(Cc3ccccc3)n2)cc1
- TGI (RXF 393 renal): > 100 µM
- TGI (MDA-MB-231 breast): > 100 µM
- TGI (MCF7 breast): > 100 µM
- TGI (SF-295 CNS): > 100 µM
- TGI (COLO 205 colon): > 100 µM
- TGI (OVCAR-4 ovarian): > 100 µM
- TGI (IGROV1 ovarian): > 100 µM
- TGI (CCRF-CEM leukemia): > 100 µM
- TGI (SK-MEL-28 melanoma): > 100 µM
- TGI (UO-31 renal): > 100 µM

SMILES: OCC1OC(c2ccccc2)CC1O (stereo not given)
- TGI (RXF 393 renal): > 100 µM
- TGI (MDA-MB-231 breast): > 100 µM
- TGI (MCF7 breast): > 100 µM
- TGI (SF-295 CNS): > 100 µM
- TGI (COLO 205 colon): > 100 µM
- TGI (OVCAR-4 ovarian): > 100 µM
- TGI (IGROV1 ovarian): > 100 µM
- TGI (CCRF-CEM leukemia): > 100 µM
- TGI (SK-MEL-28 melanoma): > 100 µM
- TGI (UO-31 renal): > 100 µM

SMILES: CC(=O)c1[nH]c(Nc2ccc(C)cc2)c(C(=S)Nc2ccccc2)c1N
- TGI (RXF 393 renal): 27.9 µM
- TGI (MDA-MB-231 breast): 35.7 µM
- TGI (MCF7 breast): 30.6 µM
- TGI (SF-295 CNS): 39.7 µM
- TGI (COLO 205 colon): > 100 µM
- TGI (OVCAR-4 ovarian): 54.9 µM
- TGI (IGROV1 ovarian): 35.7 µM
- TGI (CCRF-CEM leukemia): 62.1 µM
- TGI (SK-MEL-28 melanoma): 45.3 µM
- TGI (UO-31 renal): 28.4 µM

SMILES: COc1ccc(Cn2c3ccc([N+](=O)[O-])cc3c(=O)n2Cc2ccccn2)cc1
- TGI (RXF 393 renal): > 100 µM
- TGI (MDA-MB-231 breast): > 100 µM
- TGI (MCF7 breast): > 100 µM
- TGI (SF-295 CNS): > 100 µM
- TGI (COLO 205 colon): > 100 µM
- TGI (OVCAR-4 ovarian): > 100 µM
- TGI (IGROV1 ovarian): > 100 µM
- TGI (CCRF-CEM leukemia): > 100 µM
- TGI (SK-MEL-28 melanoma): > 100 µM
- TGI (UO-31 renal): > 100 µM

SMILES: CC(=O)c1ccc2c3c1O[C@H]1c4[nH]c5ccccc5c4C[C@@]4(O)[C@@H](C2)N(CC2CC2)CC[C@]314
- TGI (RXF 393 renal): 27.3 µM
- TGI (MDA-MB-231 breast): 25.7 µM
- TGI (MCF7 breast): 30.4 µM
- TGI (SF-295 CNS): 29 µM
- TGI (COLO 205 colon): 30.8 µM
- TGI (OVCAR-4 ovarian): 39.9 µM
- TGI (IGROV1 ovarian): 30.1 µM
- TGI (CCRF-CEM leukemia): 28.2 µM
- TGI (SK-MEL-28 melanoma): > 100 µM
- TGI (UO-31 renal): 28.7 µM

SMILES: CCN(CC)C1Oc2cc3c(cc2C(c2cccc(OC)c2O)C1C)OCO3 (stereo not given)
- TGI (RXF 393 renal): 21.2 µM
- TGI (MDA-MB-231 breast): > 49.7 µM
- TGI (MCF7 breast): > 46 µM
- TGI (SF-295 CNS): 15.4 µM
- TGI (COLO 205 colon): 13.6 µM
- TGI (OVCAR-4 ovarian): > 100 µM
- TGI (IGROV1 ovarian): > 56 µM
- TGI (CCRF-CEM leukemia): 16.3 µM
- TGI (SK-MEL-28 melanoma): 42.2 µM
- TGI (UO-31 renal): 49.5 µM

SMILES: CC1=CC(=O)/C(=C/n2c(=S)[nH]c3cc(C)ccc32)C(=O)O1
- TGI (RXF 393 renal): > 100 µM
- TGI (MDA-MB-231 breast): > 100 µM
- TGI (MCF7 breast): > 100 µM
- TGI (SF-295 CNS): > 100 µM
- TGI (COLO 205 colon): > 100 µM
- TGI (OVCAR-4 ovarian): > 100 µM
- TGI (IGROV1 ovarian): > 100 µM
- TGI (CCRF-CEM leukemia): > 100 µM
- TGI (SK-MEL-28 melanoma): > 100 µM
- TGI (UO-31 renal): > 100 µM

SMILES: CC(=O)OCC1OC(n2c(N)c(C#N)c(-c3cccc(Cl)c3)c(C#N)c2=S)C(OC(C)=O)C(OC(C)=O)C1OC(C)=O (stereo not given)
- TGI (RXF 393 renal): 22 µM
- TGI (MDA-MB-231 breast): 50.2 µM
- TGI (MCF7 breast): > 100 µM
- TGI (SF-295 CNS): > 100 µM
- TGI (COLO 205 colon): 29.7 µM
- TGI (OVCAR-4 ovarian): > 100 µM
- TGI (IGROV1 ovarian): > 100 µM
- TGI (CCRF-CEM leukemia): > 100 µM
- TGI (SK-MEL-28 melanoma): > 100 µM
- TGI (UO-31 renal): > 100 µM
